In US20250127759A1, “METHODS AND DOSING REGIMENS COMPRISING A CDK2 INHIBITOR FOR THE TREATMENT OF CANCER” (PFIZER INC., priority 2021, published 2025):
Read-outs that look alike come from different tables or passages of the source.

Assays:
[1] = Phase 1/2a study, plasma pharmacokinetics of PF-07104091; assay type: in vivo, human; settings: human, plasma, po; for half-life: read-out: t1/2 (converted); for Cmax: read-out: Cmax
Text: Blood samples will be collected for measurement of plasma concentrations of PF-07104091 as specified in the protocol. Samples will be used to evaluate the PK of PF-07104091. Samples collected for analyses of PF-07104091 plasma concentration may also be used to evaluate safety or efficacy aspects related to concerns arising during or after the study, for metabolite identification and/or evaluation of the bioanalytical method, or for other internal exploratory purposes.
Plasma PF-07104091 concentrations will be summarized descriptively (n, mean, standard deviation, coefficient of variation, median, minimum, maximum, geometric mean and its associated coefficient of variation) by dose, cycle, day and nominal time. Individual participant plasma PF-07104091 concentration-time data within a dose interval (with exception of the food effect substudy) after Cycle 1 Day 1 and Cycle 1 Day 15 will be analyzed using noncompartmental methods to determine single and multiple dose PK parameters. For participants in the food effect substudy, individual plasma PF-07104091 concentration-time data after Cycle 1 Day 15 and Cycle 1 Day 16 will be analyzed using noncompartmental methods to determine multiple dose PK parameters. For Part 1 of the study, single dose PK parameters to be estimated will include the Cmax, Tmax, and AUClast, and if data permit, t1/2, CL/F, and Vz/F. Multiple dose PK parameters to be estimated will include Cmax,ss, Tmax,ss, AUCT,ss, Cmin,ss, CL/F,ss, and if data permit, V/Fss, t1/2, and Rac. For Part 2 of the study (with exception of the food effect substudy), single dose PK parameters to be estimated will include Cmax, Tmax and AUClast. Multiple dose PK parameters to be estimated will include Cmax,ss, Tmax,ss, AUClast, Cmin,ss, and Rac. The single dose and steady state PK parameters will be summarized descriptively (n, mean, standard deviation, coefficient of variation, median, minimum, maximum, geometric mean and its associated coefficient of variation) by dose level, cycle and day. For participants in the food effect substudy, multiple dose PK parameters to be estimated will include Cmax,ss, AUCT,ss, Tmax,ss, Cmin,ss, CL/Fss, and if data permit, V/Fss and t1/2.
An ongoing Phase 1/2a, open-label, multicenter, multiple dose study is being conducted to determine the safety, tolerability, PK, PD, and preliminary anti-tumor activity of PF-07104091 as a single agent and in combination with endocrine therapy. PF-07104091 is administered orally twice daily (BID) during 28-day cycles.
Preliminary concentration-time data of PF-07104091 following single and multiple oral administration at 75 mg BID to 500 mg BID as monotherapy or in combination with endocrine therapy alone or in combination with palbociclib and endocrine therapy were available from 44 participants with advanced solid tumors and HR-positive HER2-negative advanced or metastatic breast cancer. The preliminary concentration-time data were analyzed by noncompartmental approach using actual PK sampling times.
[…] Individual values are listed when the number of participants with available parameters is less than 3.

[2] = Phase 1/2a study, safety profile; assay type: in vivo
Text: DLTs will be assessed through Cycle 1 (28-day cycle with Day 29 laboratory assessments). For the purpose of dose escalation, the DLT observation period will be during the first cycle (28 days after the start of study treatment) in each participant. Severity of AEs will be graded according to Common Terminology Criteria for Adverse Events (CTCAE) version 5.0.

[3] = 225 mg, Cycle 1 Day 15, repeated BID oral, 225 mg BID monotherapy, geometric mean (CV %)
[4] = 300 mg, Cycle 1 Day 1, single oral dose, 300 mg BID monotherapy, geometric mean (CV %)
[5] = 300 mg, Cycle 1 Day 15, repeated BID oral, 300 mg BID monotherapy, geometric mean (CV %)
[6] = 375 mg, Cycle 1 Day 1, single oral dose, 375 mg BID monotherapy, individual values
[7] = 500 mg, Cycle 1 Day 1, single oral dose, 500 mg BID monotherapy, geometric mean (CV %)
[8] = 500 mg, Cycle 1 Day 15, repeated BID oral, 500 mg BID monotherapy, individual value, N = 1
[9] = 75 mg to 500 mg BID, all cohorts, as of data cutoff

COCc1cc(C(=O)Nc2cc([C@H]3CC[C@@H](OC(=O)NC(C)C)C3)[nH]n2)n(C)n1 [PF-07104091, (1R,3S)-3-[3-({[3-(methoxymethyl)-1-methyl-1H-pyrazol-5-yl]carbonyl}amino)-1H-pyrazol-5-yl]cyclopentyl propan-2-ylcarbamate]
half-life ([1]; 225 mg, Cycle 1 Day 15, repeated BID oral, 225 mg BID monotherapy, arithmetic mean ± SD): 2.6 ± 0.9 h
AUC(0-t) [1, 3]: 10700 ng·h/mL
Cmax [1, 3]: 2350 ng/mL
Tmax ([1]; 225 mg, Cycle 1 Day 15, repeated BID oral, 225 mg BID monotherapy, median (range), read-out: Tmax): 2 h
half-life ([1]; 300 mg, Cycle 1 Day 1, single oral dose, 300 mg BID monotherapy, arithmetic mean ± SD): 2 ± 0.6 h
AUC(0-t) [1, 4]: 9110 ng·h/mL
Cmax [1, 4]: 1820 ng/mL
Tmax ([1]; 300 mg, Cycle 1 Day 1, single oral dose, 300 mg BID monotherapy, median (range), read-out: Tmax): 2 h
half-life ([1]; 300 mg, Cycle 1 Day 15, repeated BID oral, 300 mg BID monotherapy, arithmetic mean ± SD): 2.8 ± 0.2 h
AUC(0-t) [1, 5]: 12500 ng·h/mL
Cmax [1, 5]: 2570 ng/mL
Tmax ([1]; 300 mg, Cycle 1 Day 15, repeated BID oral, 300 mg BID monotherapy, median (range), read-out: Tmax): 2.1 h
AUC(0-t) [1, 6]: 11600 ng·h/mL
Cmax [1, 6]: 2520 ng/mL
Tmax ([1]; 375 mg, Cycle 1 Day 1, single oral dose, 375 mg BID monotherapy, individual values, read-out: Tmax): 4 h
half-life ([1]; 375 mg, Cycle 1 Day 1, single oral dose, 375 mg BID monotherapy, n = 1): 1.5 h
AUC(0-t) [1, 7]: 15200 ng·h/mL
Cmax [1, 7]: 2980 ng/mL
Tmax ([1]; 500 mg, Cycle 1 Day 1, single oral dose, 500 mg BID monotherapy, median (range), read-out: Tmax): 5.3 h
AUC(0-t) [1, 8]: 21500 ng·h/mL
Cmax [1, 8]: 4420 ng/mL
Tmax ([1]; 500 mg, Cycle 1 Day 15, repeated BID oral, 500 mg BID monotherapy, individual value, N = 1, read-out: Tmax): 4 h
Tmax ([1]; oral administration at doses up to 300 mg BID, read-out: median Tmax): 0.5 to 4 h
DLTs related to PF-07104091 (number) [2, 9]: 15
SAEs related to PF-07104091 (number) [2, 9]: 21
deaths related to PF-07104091 [2, 9]: no deaths
patients with at least one all-causality TEAE ([2]; 70 out of 77 patients, across all doses): 90.9%
Grade 5 all-causality TEAEs (number) ([2]; Dyspnoea at the 225 mg BID (Part A) dose): One
Grade 3 or higher all-causality TEAE: anaemia ([2]; across all doses): 6.5%
Grade 3 or higher all-causality TEAE: fatigue ([2]; across all doses): 10.4%
Grade 3 or higher all-causality TEAE: hypokalaemia ([2]; across all doses): 5.2%
Grade 3 or higher all-causality TEAE: nausea ([2]; across all doses): 7.8%
Grade 3 or higher all-causality TEAE: neutrophil count decreased ([2]; across all doses): 23.4%
Grade 3 or higher all-causality TEAE: white blood cell count decreased ([2]; across all doses): 14.3%
all-causality TEAEs Grade 3 or higher ([2]; across all doses): 49.4%
all-causality TEAE: anaemia ([2]; across all doses, 77 patients): 31.2%
all-causality TEAE: decreased appetite ([2]; across all doses, 77 patients): 20.8%
all-causality TEAE: diarrhoea ([2]; across all doses, 77 patients): 37.7%
all-causality TEAE: fatigue ([2]; across all doses, 77 patients): 41.6%
all-causality TEAE: nausea ([2]; across all doses, 77 patients): 68.8%
all-causality TEAE: neutrophil count decreased ([2]; across all doses, 77 patients): 32.5%
all-causality TEAE: vomiting ([2]; across all doses, 77 patients): 37.7%
all-causality TEAE: white blood cell count decreased ([2]; across all doses, 77 patients): 23.4%
patients who discontinued study treatment due to AEs ([2]; all cohorts, as of data cutoff): 4 patients
Grade 4 all-causality TEAE (number) ([2]; neutrophil count decreased 500 mg BID (1A) and 75 mg BID (3/1) (1B), platelet count decreased 150 mg BID (1B), neutropenia 75 mg BID (1C)): Four
